From patent US8049063B2 (Zhejiang University, priority 2005, dated 2011)

Assays:
8077S calli = type: cell-based, rice
Excerpt: FIG. 6. Bensulfuron-methyl selection results of Cyp81A6-transformed 8077S calli. Left: transgenic; right: non-transgenic control.
(§1) The full length sequence of candidate gene Cyp81A6 was obtained through lump-sum amplification using LA TaqTM polymerase reagent kit purchased from Takara Company. The long fragment PCR specific primer pairs (forward primer: 5′-[…]-3′ (SEQ ID NO: 40); reverse primer: 5″-[…]-3′ (SEQ ID NO: 41), synthesized by Shanghai Sangon) used in this experiment were designated at a start from 124 bp before and end with 4145 bp after BamHI enzyme digestion site located at 5′-end of Cyp81A6 gene, respectively, according to the DNA sequence publicized by indica rice genome database. According to the designing, these primers have a BstEII enzyme cutting site attached to the 3′-end of the primers, which is convenient for production of cohesive end and ligation during cloning. The amplified fragment with the total size of […] by this pair of primers is consisted of those parts: 124 bp upstream sequence of the BamHI digestion site, 1321 bp promoter sequence, 2321 bp sequence of leader region plus exon plus intron , 272 bp 3′-UTR sequence, followed by 288 bp genome sequence (including the 7 bp BstEII recognition site and 5 bp protection base). […]

[1] = tested on: Cyp81A6 transgenic 8077S plants; test: Bentazon test of Cyp81A6 transgenic 8077S seedlings (complementation); type: in vivo, rice
Excerpt: FIG. 7. […] Left: negative control of 8077S; middle: transgenic seedling; right: positive control of W6154S.
as §1

[2] = tested on: Cyp81A6 antisense RNA transformed Minghui 63 plants; test: Bentazon leaf smear test of Cyp81A6 antisense RNA transformed Minghui 63 plants; type: in vivo, rice; settings: 1250 mg/L smeared on leaves, 3 leaves/plant; antisense transgenic Minghui 63; 36 hours later
Excerpt: Design anti-sense RNA (RNAi) sequences (see the 1939th to 2439th nucleotide sequence of SEQ ID NO.1) in according with the coding sequence of the cloned rice Cyp81A6 gene. Fuse these antisense RNA (RNAi) sequence to the rice constitutive expression promoter such as Actin1 and then insert them into the binary vectors of pAANT11 (see FIG. 16). Use this vector to transform wild-type rice such as Minghui 63 using the modified procedures of Agrobacterium-mediated transformation method. After that, use the specific primers to carry on the PCR amplification analysis of transgenic TO generation plants for molecular confirmation.

Compound	growth of non-transgenic calli on herbicide medium (8077S calli)	response of PCR-positive Cyp81A6 transformants to bentazon ([1]; 1250 mg/l, regenerated transgenic 8077S plantlets)	resistance of transgenic line carrying the entire CYP81A6 sequence ([1]; 8077S mutant genome transformed with entire CYP81A6 gene)	outcome of treated leaves and plants [2]
COC(=O)c1ccccc1CS(=O)(=O)NC(=O)Nc1nc(OC)cc(OC)n1 [BSM, bensulfuron-methyl]	stop to grow			
CC(C)N1C(=O)c2ccccc2NS1(=O)=O [bentazon]		recovered the resistance	highly resistant	faded and died
